Results reported in paper PMC5116089, “Sulfheme formation during homocysteine S-oxygenation by catalase in cancers and neurodegenerative diseases” (Nature Communications, 2016).

Molecular target: T1, Bovine liver catalase (Bos taurus, UniProt P00432)
T1 construct: Bovine liver catalase was also purchased from Sigma-Aldrich; purchased Sigma-Aldrich; host or cells: bovine liver
T1 sequence (P00432 2-527 limits assumed): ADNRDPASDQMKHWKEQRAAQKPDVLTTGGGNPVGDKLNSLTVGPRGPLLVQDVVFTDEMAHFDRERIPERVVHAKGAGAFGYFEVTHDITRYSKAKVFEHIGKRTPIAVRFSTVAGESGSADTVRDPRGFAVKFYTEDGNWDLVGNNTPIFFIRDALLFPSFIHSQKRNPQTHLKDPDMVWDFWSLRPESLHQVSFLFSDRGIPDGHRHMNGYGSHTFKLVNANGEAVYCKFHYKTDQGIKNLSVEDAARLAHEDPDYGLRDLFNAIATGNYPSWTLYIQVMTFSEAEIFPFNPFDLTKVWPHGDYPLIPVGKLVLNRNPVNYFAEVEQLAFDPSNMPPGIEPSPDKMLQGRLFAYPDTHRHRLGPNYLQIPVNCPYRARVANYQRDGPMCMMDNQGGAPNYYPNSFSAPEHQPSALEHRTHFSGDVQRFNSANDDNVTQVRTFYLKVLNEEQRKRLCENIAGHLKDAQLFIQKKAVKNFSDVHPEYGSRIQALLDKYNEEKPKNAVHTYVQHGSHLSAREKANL
Assay: Ultraviolet-visible spectral changes and HPLC-MS of extracted heme after reaction of CAT with thiols
Type: biochemical
Description: Ultraviolet–visible spectra were recorded on a Cary 300 Scan or an Uvikon 941 spectrophotometer equipped with a temperature equilibrating water bath (±1 °C). Spectral changes over time were recorded when CAT was incubated with L-HCys (0.2 or 2 mM), L-Cys (0.2, 2 or 9 mM) or GSH (1 or 30 mM) at 25 °C in a 1 ml quartz cuvette containing a solution of CAT (2.7–5.9 μM) in 50 mM KPi, pH 7.4±1 mM DTPA. Due to half-site reactivity of biological thiols with CAT, the data were recorded versus a blank containing half the concentrations of CAT used in the experiments, that is, a solution of 1.35–2.95 μM CAT in 50 mM KPi at pH 7.4±1 mM DTPA. Reactions were initiated by addition of the thiol-containing compounds. Comparative kinetic studies were performed by incubating CAT ([…] in the experiment, 1.35–1.5 μM in the blank) with 2 mM L-HCys in 50 mM KPi, pH 7.4, 1 mM DTPA with or without […], 5,5-dimethyl-1,3-cyclohexanedione (dimedone, 4 mM), BCN (0.1 mM) or SOD, 40 U). All the experiments were performed at least in duplicate.
HPLC–MS or –HRMS spectra of the prosthetic heme-iron group were recorded on a Thermo-Finnigan Surveyor or a Thermos Fisher Accela equipped with an XTerra MS C18 3.5 μm (2.1 × 50 mm) and a pre-guard column coupled to an ESI LCQ Advantage or an Exactive orbitrap spectrometer, respectively. The prosthetic heme group was extracted on ice by incubating a solution of CAT (5–8 μM) with 1.65 volume of 50 mM Gly-HCl pH 2.0 and 2.65 vol of butan-2-one kept a −20 °C. After vigorous mixing and a short centrifugation step (13,000 r.p.m., 4 °C, 30 s), the upper organic phase was quickly removed and mixed with a solution of 2 M imidazole (10% v/v) to stabilize the extracted cofactor and permit analysis. […] Control experiments (CAT, thiol-compounds and additives alone as well CAT and additives or thiol-compounds and additives) were performed in each instance and analysed in parallel.

NC(CCS)C(=O)O (stereo not drawn) [HCys, homocysteine]
heme-iron species formed from CAT (2 mM HCys, 1 mM DTPA, pH 7.4, 25 °C): induces the production of a sulfheme species

N[C@@H](CS)C(=O)O [Cys, cysteine]
heme-iron species formed from CAT (physiological concentration of Cys (200 μM) in the presence of iron, no DTPA): only leads to the reversible formation of compound II

N[C@@H](CCC(=O)N[C@@H](CS)C(=O)NCC(=O)O)C(=O)O [GSH, glutathione]
heme-iron species formed from CAT (GSH (30 mM)): compound II formation was only observed
